US5053215A, “NMR-assayable ligand-labelled trifluorothymidine containing composition and method for diagnosis of HSV infection” (priority 1988, dated 1991)
Entries after “also recorded” stand apart in the source; their conditions may differ.

Legend:
HSV infected cells = conditions: in vitro, cited from earlier work; for Degradation of phosphorylated drug back to parent compound: HSV infected cells, Smee et al
HSV TK = conditions: cited from earlier work
HSV infected tissues = conditions: cited from earlier work
in vivo = conditions: mouse, in vivo, iv
Method: (§1) For comparison, TFT levels were measured in the livers of uninfected mice and mice with carbon tetrachloride (CCl4) induced hepatitis.
(§2) HSV-2 (333 strain) was grown and titered in Vero cells as previously described [Rand -t al, J. Med. Virol., Vol. 20, pp. 1-8 (1986).
(§3) The following strains of mice were obtained from the National Cancer Institute: Balb/c, CBA/J, A/HeN, A/J, P/N, and DBA/2N.
(§4) Carbon tetrachloride was dissolved in olive oil for injection. Trifluorothymidine was assayed by high pressure liquid chromatography (HPLC).
(§5) 4-6 week old, 18-23 gm, CBA/J mice were injected intraperitoneally (i.p.) with 1.5 ml of HSV-2 (2-4×10^6 pfu/ml). […] Three days after infection, mice were anesthetized with a 3:1 mixture of 100 mg/ml ketamine HCl:20 mg/ml Xylazine at a dose of 0.2 ml/kg. The jugular vein was surgically exposed, and mice were injected intravenously with 100 or 160 mg/kg of TFT in the appropriate volume of a 20 mg/ml solution in Phosphate Buffered Saline (PBS) pH 7.4. Mice were sacrificed at 45 minutes, 2 hours, 2.5 and 3.5 hours after I.V. injection of TFT. The livers were immediately excised and frozen at -70° C. until they could be studied. For viral titration and measurement of TFT, 1.5 ml of phosphate buffered saline pH 7.4 was mixed with 1 g of liver and the mixture homogenized (10 strokes using a Pyrex Ten Broeck tissue grinder), followed by sonication ×4 for 30 sec. in a Fisher 300 sonic dismembrator at a relative output of 0 55; 0.8 ml of the liver homogenate was mixed with an equal volume of methanol, vortexed extensively and then centrifuged at 15,000×g for 15 minutes. The supernatant was analyzed by HPLC for TFT and the results expressed per gram of liver after correction for dilution. Prior to sonication, 0.5 ml of the liver homogenate was serially diluted in serum free tissue culture media and titrated in triplicate in Vero cells as previously described [Rand et al, supra]. In some experiments the clarified supernatant that had been mixed with methanol as described above was placed in a 5 mm NMR tube and ^19 F content measured by NMR spectroscopy. In other experiments the entire liver was excised, and placed in a 12 mm NMR tube and the ^19 F directly analyzed by NMR spectroscopy.
(§6) Prior to i.p. injection of CCl4 in olive oil, 0.2 ml of blood was collected from each of a group of 5 mice. Twenty-four hours after i.p. injection of 0.1 ml/kg CCl4 in olive oil, blood was collected again, and both sets were analyzed for Alanine Amino Transferase (ALT) and Blood Urea Nitrogen (BUN). For ALT, 2 μl serum was analyzed in duplicate with a Technicon RA 1000 and for BUN 10 μl duplicate samples were analyzed with a Beckman Astra 8. Mice were sacrificed by cervical dislocation and the liver and kidney fixed in 10% formalin, stained with hematoxylin and eosin and examined histologically.
(§7) Therefore, data were analyzed by the non-parametric Mann-Whitney U test.
(§8) In FIG. 1, 1 HSV-2 infected, uninfected and CCl4 treated 4-6 week old CBA/J mice were injected via the jugular vein with 100 mg/kg TFT, and sacrificed at 45 minutes, 2 hours or 3.5 hours later. […] Most of the experiments were done on day 3 after HSV infection; day 2 after infection was not systematically studied, and is presented only for comparison.
(§9) In FIG. 2, the relationship between HSV-2 titer/g liver and TFT concentration/g liver measured by HPLC on day 3 after HSV-2 infection, 2 h (O's) and 2.5 h ( 's) following i.v. administration of TFT. Two separate experiments are shown. Data were analyzed by linear regression.

[1] = system: livers of mice infected with HSV-2; assay: TFT concentration in livers of HSV-2 infected mice (with uninfected and CCl4 hepatitis controls) by HPLC after i.v. injection
Method: as §1, §2, §3, §4, §5, §6, §7, §8, §9

[2] = TFT (19F) concentration in mouse livers by 19F NMR spectroscopy after i.v. injection; set-up: species or system CBA/J mice; HSV-2 (333 strain); conditions: in vivo, iv, 100 mg/kg, TFT concentration in liver homogenate by 19F NMR (FIG. 3B)
Method: (§10) ^19 F assay was carried out in a Nicolet-GE NT-300 NMR spectrometer, using standard techniques with a simple one-pulse sequence. The field was 7.05 Tesla (T) and the frequency was 282 megahertz. Depending upon the volume of the sample available, it was placed :n either a 5 mm or 12 mm diameter tube, which was usually not spun. Both whole liver and liver homogenates were placed in 2 ml of a 2:1 v/v mixture of D2 O: methanol which inactivated HSV, permitted field homogeneity to be optimized and provided field-frequency lock for time averaging. A five-second cycle time was used with a tip angle of 60°. Sweep width was 5000 Hz and 64K data points were collected. Concentration of ^19 F in a sample was evaluated by comparing the electronically integrated area of the resonance peak, after application of 10 Hz line broadening and Fourier transformation of the free induction delays using a 1280 computer, to that of standards containing 10, 50, or 100 μg/ml TFT Instrumental reproducibility of the calculated areas was checked by comparing the integral for the […] standard to that calculated from a scale setting obtained with a 100 μg/ml standard. […]
(§11) In FIG. 3, representative ^19 F NMR spectra was measured with the Nicolet GE NT-300 NMR spectrometer at a field strength of 7.05 T, using a 2:1 v/v D2 O/methanol mixture as a field-frequency lock. […]

[3] = system: livers of mice infected with HSV-2; assay: as above; set-up: species or system CBA/J mice; HSV-2 (333 strain); conditions: in vivo, iv, 100 mg/kg, 3.5 h
Method: as §10, §11

[4] = TFT blood levels after i.v. injection; format: in vivo, CBA/J mice
Method: as §4

[5] = system: murine hepatitis virus (MHV-A59); set-up: species or system CBA/J mice; MHV-A59; conditions: mouse, in vivo
Source text: Symbols used: =HSV-2; O=MHV-A 59; Δ=uninfected.

[6] = in vivo; cited from earlier work
[7] = CCl4 induced hepatitis: Alanine Amino Transferase (ALT), Blood Urea Nitrogen (BUN) and histology; format: in vivo, CBA/J mice
Method: Preliminary experiments were then carried out to determine the average ALT levels of HSV-2 infected mice on day 3 at the time higher levels of TFT were found in the liver. […] A dose response curve of CCl4 hepatitis had shown that between 0.015-0.02 ml/kg CCl4 would lead to ALT levels of 500-5000 IU/ml blood. […]

[8] = system: optic nerve and chiasm of rats after intraocular inoculation of HSV-1; conditions: rat, in vivo; cited from earlier work
[9] = mouse, in vivo, iv, 160 mg/kg, 2 h

## Nc1nc2c(ncn2COCCO)c(=O)[nH]1 [DHPG, 9-(2-Hydroxyethyoxymethyl) guanine]
HSV infected cells
  Degradation of phosphorylated drug back to parent compound: did not hydrolyze back to the parent compound as readily
  Intracellular accumulation in HSV infected cells: intracellular accumulation; also recorded: accumulated in a similar manner

## Nc1nc2c(ncn2COCCO)c(=O)[nH]1 [acyclovir]
HSV infected cells
  Degradation of phosphorylated drug back to parent compound: rapidly degraded back to acyclovir, and diffused out of the cell
  Intracellular accumulation in HSV infected cells: intracellular accumulation; also recorded: accumulate in tissue culture; also recorded: accumulated in the form of phosphorylated intermediates
HSV TK
  Phosphorylation by HSV TK: phosphorylated by the HSV TK
HSV infected tissues; Price et al
  Selective accumulation of acyclovir in HSV infected tissues in vivo: unable to demonstrate any selective accumulation
HSV infected tissues; s.c. injection, Biron et al, "remained reasonably elevated"
  Duration of elevated plasma levels of acyclovir: ≥ 2 h

## O=c1[nH]c(=O)n([C@H]2C[C@H](O)[C@@H](CO)O2)cc1C(F)(F)F [TFT, trifluorothymidine]
In vivo; 100 mg/kg, TFT concentration in liver by HPLC, CCl4 hepatitis
  concentration at 2 h: < 1000 ng/g
In vivo; 160 mg/kg, Mean conc. of TFT in liver, infected mice
  concentration at 2 h: 110000 ng/g
In vivo; 160 mg/kg, Mean conc. of TFT in liver, uninfected mice
  concentration at 2 h: 14700 ng/g
[1]; 2 HSV-2 infected mice with titers of 10^6 pfu HSV/g liver (FIG. 4)
  TFT levels in livers of HSV-2 infected mice, positive control in MHV experiment: high levels of TFT in liver; also recorded: strikingly elevated levels
[1]; i.p. injection, HSV infected mice
  Accumulation of TFT in liver after i.p. injection: impossible to demonstrate accumulation of TFT in the liver
[1]; i.v. injection of TFT, 2 and 3.5 hours in FIG. 1 (100 mg/kg), 100 mg/kg
  TFT levels in livers of HSV-2 infected mice vs uninfected or CCl4 treated mice: significantly higher levels of TFT in their livers at both 2 and 3.5 hours; also recorded: highly elevated levels of TFT
[1]; [9]
  Mean conc. of TFT in liver, infected mice: 110.1 μg/g liver
  Mean conc. of TFT in liver, uninfected mice: 14.7 μg/g liver
[1]; viral titers low (10^3 /g liver)
  TFT levels in liver on day 2 after HSV-2 infection: higher levels of TFT could be found in the livers of HSV-2 infected mice on day 2 as well as day 3
[2]
  concentration at 3.5 h: 11000 ng/g
[3]
  TFT concentration in liver homogenate by 19F NMR (FIG. 3B): 11 μg/g liver
[4]; 100 mg/kg i.v., HSV-2 infected, uninfected, CCl4 treated
  Blood levels of TFT at 45 minutes, difference among groups: essentially no difference in blood levels
[4]; i.v. injection, 2 hours, any of the groups
  Blood levels of TFT at 2 hours: no detectable drug at 2 hours in the blood; also recorded: no measurable blood levels
[5]
  TFT level vs MHV titer: No relationship between MHV titer and TFT level
HSV infected cells
  Intracellular accumulation in HSV infected cells: intracellular accumulation; also recorded: accumulate in tissue culture
HSV TK
  Phosphorylation by HSV TK: phosphorylated by the HSV TK
[6]
  Blood brain barrier crossing: crosses the blood brain barrier poorly

## ClC(Cl)(Cl)Cl [CCl4, carbon tetrachloride]
[7]; 0.015-0.02 ml/kg CCl4
  ALT levels in blood after CCl4 (0.015-0.02 ml/kg), dose response curve: 500-5000 IU/ml blood
[7]; 0.2 ml/kg i.p.
  Renal function (BUN) after CCl4: no significant alternation in renal function
[7]; 0.2 ml/kg in olive oil i.p., a day later, typical range
  ALT levels in blood after CCl4 (0.2 ml/kg): 20,000-30,000 IU/ml
[7]; 0.2 ml/kg in olive oil i.p., a day later / histology
  Hepatic necrosis after CCl4: overwhelming hepatic necrosis; also recorded: massive
[7]; 24 h post treatment, 0.02 ml/kg, N = 12, after receiving 100 mg/kg TFT, Mean ± SD
  ALT after CCl4 (0.02 ml/kg): 18950 ± 7526 IU/L
[7]; 24 h post treatment, 0.2 ml/kg i.p., N = 5, Mean ± SD, pre treatment 10.4 + 2.7
  BUN after CCl4: 6.4 ± 2.3 mg/dL
[7]; 24 h post treatment, 0.2 ml/kg i.p., N = 5, Mean ± SD, pre treatment 28.2 ± 13.8
  ALT after CCl4 (0.2 ml/kg): 28112 ± 6086 IU/L
[7]; dose printed as 0.0 ml/kg
  Hepatic necrosis after low dose CCl4, histology: more localized and less extensive

## Cc1cn([C@@H]2O[C@H](CO)[C@@H](O)[C@@H]2F)c(=O)[nH]c1=O [FMAU, 2' fluoro-5-methyl-1-β-D-arabinosyluracil]
[8]
  Accumulation of FMAU in choroid plexus and cells lining the ventricular walls: non-specific accumulation
  Concentration of FMAU in optic nerve and chiasm: specific concentration of the drug in the optic nerve and chiasm
